How the values were obtained:
[1] = molecular target: T1, α5β1 integrin (Homo sapiens, UniProt P05556+P08648); experiment: Inhibition of 125I-fibronectin binding to α5β1 integrin by competing peptides; details: 1 hour, compared with cyclic CRGDC peptide, FIG. 1
T1 construct: The αvβ3, αvβ5 and α5β1 integrins were isolated from human placental extracts; from tissue; host or cells: human placenta
Method: In addition, most of the phage-binding activity in the αvβ3 preparation was captured into microliter wells coated with antibodies against the αv or β3 subunits as described previously (Koivunen et al., J. Biol. Chem., 268:20205–10 (1993). The αIIbβ3 integrin was isolated from outdated platelets (Pytela et al., Science, 231:1559–1562 (1986)).
The α5β1 integrin was bound to α5 specific antibody-coated wells by incubating 300 μl of a placental extract per well in TBS buffer containing 0.1 M octylglucoside, 1 mM CaCl2, 1 mM MnCl2 and proteinase inhibitors overnight at 4° C., (Koivunen et al., J. Biol. Chem., 268: 20205–20210 (1993). Alternatively, the α5β1 integrin was directly coated on plastic as described above.
The wells were extensively washed with TBS containing 0.1% NP-40. ^125I-labeled fibronectin (100,000 cpm per well) was incubated in the presence of competing peptides for 1 hour at 25° C. in 100 μl volume of TBS containing 0.1% NP-40 and 1 mM MnCl2, as described by Koivunen et al., J. Biol. Chem. 268: 20205–20210 (1993). After repeated washing, the bound radioactivity was quantitated with a gamma counter.
Initially, […] [SEQ ID NO:12] was examined for its ability to inhibit binding of fibronectin, which is the natural ligand for α5β1. […] Following incubation, the wells were washed and bound radioactivity was determined with a gamma counter.

[2] = system: α5β1 integrin; experiment: Inhibition of attachment of CHO C11 cells to fibronectin; format: cell-based, Chinese hamster
Description: Cell lines expressing different integrins were used to examine peptide inhibition of integrin function. A human melanoma cell line, C8161, a fibroblast cell line, WI-38, and an osteosarcoma cell line, MG-63 (described by Seftor et al., Canc. Res., 53:3411–3415 (1993); Vogel et al., J. Biol. Chem., 265:5934–5937 (1990); and Pytela et al. (1985), supra, respectively, each of which is incorporated herein by reference) attach to fibronectin through α5β1 integrin, as does B2/α27, a CHO cell line transfected with human α5. B2/C1, the control parental CHO line (Bauer et al., J. Cell. Biol. 116:477–487 (1992), which is incorporated herein by reference), attaches via […]. CHO cells C11 and NIH 3T3 cells express the endogenous Chinese hamster and mouse α5β1 integrins, respectively. The human melanoma cells, A375-M, attach to fibronectin through both α5β1 and α4β1 integrins (Mould et al., J. Biol. Chem. 265:4020–4024 (1990), which is incorporated herein by reference). CHO cell line B2/v7 express the αvβ1 integrin (Zhang et al., J. Cell. Biol. 122:235–242 (1993), which is incorporated herein by reference). […]
Cell lines expressing fibronectin-binding integrins were used to determine peptide activities against these integrins in the cell attachment assay described by Ruoslahti et al., Meth. […] Bound cells were quantitated by staining with 0.1% amido black.

T1 sequence (P08648 42-894 limits assumed): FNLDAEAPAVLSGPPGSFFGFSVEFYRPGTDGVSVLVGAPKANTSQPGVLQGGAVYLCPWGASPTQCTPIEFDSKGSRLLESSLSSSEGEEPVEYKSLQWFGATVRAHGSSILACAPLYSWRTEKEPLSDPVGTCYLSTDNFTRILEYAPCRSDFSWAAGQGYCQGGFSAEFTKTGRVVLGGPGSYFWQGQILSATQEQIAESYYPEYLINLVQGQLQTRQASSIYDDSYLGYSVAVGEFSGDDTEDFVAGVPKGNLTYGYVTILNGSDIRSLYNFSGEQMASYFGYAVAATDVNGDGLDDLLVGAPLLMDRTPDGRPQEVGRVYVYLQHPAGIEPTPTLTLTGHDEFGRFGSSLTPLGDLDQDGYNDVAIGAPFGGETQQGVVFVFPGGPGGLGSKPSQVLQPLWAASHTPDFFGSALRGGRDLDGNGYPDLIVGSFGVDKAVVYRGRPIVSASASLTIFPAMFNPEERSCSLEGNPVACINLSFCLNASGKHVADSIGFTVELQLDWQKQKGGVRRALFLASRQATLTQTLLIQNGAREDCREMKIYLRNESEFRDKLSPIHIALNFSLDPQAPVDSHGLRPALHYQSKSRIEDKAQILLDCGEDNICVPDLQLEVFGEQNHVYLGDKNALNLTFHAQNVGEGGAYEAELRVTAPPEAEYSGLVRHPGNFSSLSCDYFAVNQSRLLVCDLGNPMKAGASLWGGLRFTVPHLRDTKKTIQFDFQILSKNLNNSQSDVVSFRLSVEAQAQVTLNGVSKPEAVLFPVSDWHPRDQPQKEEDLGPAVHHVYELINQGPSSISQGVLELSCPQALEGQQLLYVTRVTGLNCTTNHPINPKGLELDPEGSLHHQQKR
T1 sequence (P08648 895-1049 partner limits assumed): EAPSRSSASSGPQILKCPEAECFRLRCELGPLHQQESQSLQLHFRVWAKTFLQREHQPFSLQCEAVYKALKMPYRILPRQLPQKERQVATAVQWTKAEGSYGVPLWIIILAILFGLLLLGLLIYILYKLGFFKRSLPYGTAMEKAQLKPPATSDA
T1 sequence (P05556 21-798): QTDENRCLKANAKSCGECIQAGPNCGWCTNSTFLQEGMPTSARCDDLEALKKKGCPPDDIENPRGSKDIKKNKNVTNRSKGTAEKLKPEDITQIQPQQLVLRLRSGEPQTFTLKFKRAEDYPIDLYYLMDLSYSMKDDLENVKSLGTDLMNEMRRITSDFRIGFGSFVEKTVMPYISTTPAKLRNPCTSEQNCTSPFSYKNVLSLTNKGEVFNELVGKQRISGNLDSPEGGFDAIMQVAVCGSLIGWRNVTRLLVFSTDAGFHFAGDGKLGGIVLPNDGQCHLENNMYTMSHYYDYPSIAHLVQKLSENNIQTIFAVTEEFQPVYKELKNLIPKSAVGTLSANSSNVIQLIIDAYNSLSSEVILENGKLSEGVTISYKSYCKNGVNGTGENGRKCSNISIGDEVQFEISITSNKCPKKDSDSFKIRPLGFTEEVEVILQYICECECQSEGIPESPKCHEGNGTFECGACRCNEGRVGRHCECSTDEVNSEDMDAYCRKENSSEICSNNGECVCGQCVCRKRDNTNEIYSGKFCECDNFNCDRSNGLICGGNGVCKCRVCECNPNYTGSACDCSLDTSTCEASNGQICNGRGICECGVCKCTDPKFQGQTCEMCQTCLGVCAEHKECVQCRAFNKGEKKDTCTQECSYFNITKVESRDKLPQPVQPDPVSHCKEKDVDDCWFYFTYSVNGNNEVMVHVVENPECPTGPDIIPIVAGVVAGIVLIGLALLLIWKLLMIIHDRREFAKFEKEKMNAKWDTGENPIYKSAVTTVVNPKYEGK

## GACRRETAWACGA
[1]
  inhibition of fibronectin binding to α5β1: equally as well as the cyclic CRGDC
[2]
  blocking of attachment of CHO C11 cells to fibronectin: could not block

From patent US7067619B2, “Integrin-binding peptides” (La Jolla Cancer Research Foundation, priority 1993, dated 2006)
